Here are results for five molecules from patent US12006530B2, “Streptococcal proteases” (priority 2016, dated 2024).

The subject of assay [1] is S. suis IgdE^ΔC. Put plainly: Inhibitor profile of purified recombinant IgdE^ΔC, quantitative IgG degradation analysis. Format: biochemical, Streptococcus suis. To be noted: 125 fold molar excess of inhibitor; porcine IgG, 37° C., up to 18 h. The procedure:
The time course of cleavage (A) was monitored by continuous sampling prior to Coomassie fluor orange stained SDS-PAGE under reducing conditions followed by densitometric quantification of the cleavage product. 1.67 μM porcine IgG was incubated with 0.2 μM purified rIgdE^ac. Overnight cleavage (16 h) was set as 100% relative cleavage. For the inhibitor profile (B) initial cleavage in presence of 250 μM and 2.5 μM of each inhibitor was monitored. Initial cleavage activity of the uninhibited control was set as 100% relative activity. The DMSO control correlates to 250 μM Z-LVG-CHN2. Data are presented as mean±SEM of three experiments. Differences to the uninhibited control (*) or DMSO control (□) were analyzed by Dunnett's Multiple Comparison Test with significance set at P values of <0.05(*), <0.01(**) and <0.001(*** or □□□).
For time course analyses and inhibitor profiles the IgG degradation reaction was performed with 0.25 mg/ml porcine IgG and 2 μM purified IgdE^ΔC at 37° C. in PBS uninhibited or in the presence of 2.5 μM or […] AEBSF (Sigma), EDTA, E-64 (Sigma), lodoacetamide (Sigma), or Z-LVG-CHN2 (Bachem). DMSO (Sigma) at 0.275%, corresponding to the DMSO content in 250 µM Z-LVG-CHN2, was used as a solvent control. The reactions were continuously sampled and subjected to SDS-PAGE under reducing conditions. Protein bands were detected by staining with Coomassie Fluor™ Orange Protein Gel Stain (Invitrogen). The IgG degradation product was densitometrical quantified by imaging with LAS4000 imaging system (Fujifilm) and analyzed with Image Studio Version 3.1 (LI-COR Biosciences) software. Uninhibited over-night cleavage was set as 100% relative cleavage for the time course experiment. For the inhibitor profile the initial cleavage rate was calculated from the initial increase of cleavage product (0-25% relative cleavage) and the initial cleavage rate of the uninhibited reaction was set as 100% relative activity. Experiments were at least performed in triplicates. Statistical analyses were performed using GraphPad Prism Version 5.0.

The test system of assay [2] is IgG degradation activity in culture supernatant of S. suis strain 10. Put plainly: Inhibitor profile of IgG degradation activity in S. suis culture supernatant, anti-IgG Western blot. Format: biochemical, Streptococcus suis. To be noted: for IgG cleavage product in presence of inhibitor: concentrated (10×) supernatant of strain 10, porcine plasma; for IgG cleaving activity in the presence of class specific protease inhibitors: protease enriched ammonium sulfate precipitates of S. suis culture supernatant, porcine plasma. The method, then:
Concentrated (10×) culture supernatant of S. suis strain 10 was incubated with porcine plasma in presence of class specific protease inhibitors. The reaction was analyzed by anti-IgG western blot under reducing conditions.
To monitor IgG cleavage activity in concentrated and fractionated culture supernatants, samples were incubated with 1% porcine plasma in PBS for 16 h at 37° C. prior to Western blot analyses.
To identify the catalytic type of the IgG protease, the IgG degradation reaction was performed in the presence of 0.1-5 mM AEBSF (Sigma), 0.1-5 mM EDTA, 50-250 μM E-64 (Sigma), 0.1-5 mM Z-LVG-CHN2 (Bachem), 0.1-5 mM Iodoacetamide (Sigma) or 1/200 to 1/50 dilution of complete protease inhibitor cocktail (Roche).
(§1) Samples for SDS-PAGE were prepared with either reducing or non-reducing sample buffer and heated to 95° C. for 5 min. 12% SDS-PAGE was either stained with Coomassie blue (Sigma), Coomassie Fluor™ Orange Protein Gel Stain (Invitrogen) or blotted to Hybond-P PVDF membrane (GE Healthcare) for western blot analyses. Membranes were blocked with 5% dry milk powder in 0.1% PBS-Tween, followed by incubation with horse-radish peroxidase conjugated antibodies. Goat anti-pig IgG-HRP (Thermo Scientific) and goat anti-porcine IgM-HRP (Thermo Scientific) was diluted 1:25′000 and goat anti-porcine IgA-HRP (Thermo Scientific) was diluted 1:12′500. Membranes were thoroughly washed with 0.1% PBS-Tween prior to development with Amersham ECL Select Western blotting detection reagent (GE Healthcare) according to manufactures instruction and pictured by LAS4000 imaging system (Fujifilm).
In general terms: Immunoblotting shows a protein as a band on a membrane.

Assay [3] deals with porcine IgG. Put plainly: IgG cleavage by IgdE, SDS-PAGE. The format is biochemical, pig. To be noted: 3.3 μM porcine IgG, 16 h at 37° C., soluble fractions of E. coli expressing the construct, reducing SDS-PAGE. The method, then:
(A) Schematic illustration of IgdE and the different rIgdE constructs with potential active site residues substitutions and the C-terminal truncation variant. The secretion signal peptide (residues 1-37) is marked in light grey, the transglutaminase domain is boxed and the potential active site residues and substitutions are indicated. (B) 3.3 μM porcine IgG was incubated for 16 h at 37° C. with soluble fractions of E. coli cells expressing different rIgdE constructs. The reaction was analyzed SDS-PAGE under reducing conditions. […] The weak protein band of 37 kDa is a contaminant present in lysate preparation and not related to IgdE activity.
0.5 mg/ml of porcine IgG (Sigma) in PBS or of other species (human, goat, cow, horse and mouse; all Sigma) were incubated with either crude extracts of induced E. coli carrying S. suis IgdE constructs mentioned above or 10 nM purified rIgdE for 16 h at 37° C. prior subjection to SDS-PAGE under either reducing or non-reducing conditions.
as §1

Entries after “also recorded” stand apart in the source; their conditions may differ.

For `NC(=O)CI` [iodoacetamide], the “IgG proteolytic activity of purified IgdE^ΔC in presence of inhibitor” value in assay [1] was “no cleavage product at all could be detected”. Also, the “IgG cleavage product in presence of inhibitor” value in assay [2] (inhibitor 0.1-5 mM) is recorded as “no degradation product was observed”. In assay [2], the “IgG cleaving activity in the presence of class specific protease inhibitors” value was “appeared to inhibit IgG degrading activity”.
In the case of `NCCc1ccc(S(=O)(=O)F)cc1` [AEBSF], in assay [1], the “IgG proteolytic activity of purified IgdE^ΔC in presence of inhibitor” value is “inhibited the IgdEAC moderately”. The “IgG cleavage product in presence of inhibitor” value is “no degradation product was observed” in assay [2] (inhibitor 5 mM) and “A cleavage product of IgG can be observed” in assay [2] (inhibitor 0.1-1 mM). Moreover, in assay [2], the “IgG cleaving activity in the presence of class specific protease inhibitors” value is recorded as “interfered moderately with IgG cleavage”.

B1: rIgdE^D348A (protein)
chain: DENSHLQSPKNTNKIEVLNWEAFSKKLKDYSSDQRQFHVLKLGFENRLGTLSTREELEEFGKNNNFLVINGKVTQNIHDFPHILVMNKGDVIAHNEEDYHNQMRELRFSGNGDLHNSMEPKRIHALFKIELDSNKRQLLNAAGLGTAENSLKNINGMTIYSHGLTVDNKYYEDYSKYTHNSVKNINVTKERFIANDDLIHKLIESSEAMKQSSERDKVKAFVQYVANHTTYDWEAANKAVQNYADINYYLGSDLFAVTERQKAMCVGFSTTAARAFNMLGLPAYVVVGKNAEGVPHATARVYYDKKWHTIAGTGFITGNKHQRSAKYSEKHFSTIGEDSYDVVEAGQEPKAERNYMIIDSNYESWAMKQKTADLLLFNKEKSLVGLDYIAYVEPTYITENKKNHLLDIYKALKRKVEETKATDKDDKDDKQEGYDRVLQFVNSDIDKLSALSKITEEEFKALENSMDLARVFLGQMNAKAGKEFSEGETYQSYLKNRQKNNTNSDDDRNRNELQENQANSDEVSQNSKDASAPSVNSAQQSEELEGTPSTQETISAAPSQQTPAAPKALQAKTELEDKTETSSLGNTEMVSPSSETAQNTVDSKEESDAKLPYVEPSSKESSEAQVNTVSSPQVSSASPTSSETISTDTVTASQEKAESRVSAPQVISASQTSPETNSAEVVTTSQEVAKAPVSAPQVSSEIQTLSETAPTEVATEAPELSALESNPAPQTSLETTPTEEVTETPEPSVVESNSASPTSPETNSAEAVTTSQEMAEPSVSVPQVSSEIPTSSETAPAEVATEVSEESSSASQPSPETTPTETVTTSQEVAEAPVSAPQVSSEIPTSPETASTEVVVAKQEVADSPVSAPQVISEIPTSSETAPAEVATEVTEPSVVASSSASPTSPEANSTEVVVAKQEVADPLVSAPQTSSASLTLEVPKNEHLDEKADATTPNGVEANTHEAVSVPTSDIRVQDAGSDTVPQPYSLSATLFEEAISTVEPVGVATSSQERSAVAGKVKVPTSLERSNNSVEEEKVVDSNATIENREPEKKEILTSENVLNSLVTIWVALSTSFFMRYFSRGK
In the case of B1, the “IgG cleavage (32 kDa band) by rIgdE constructs” value (“IgG cleavage (32 kDa band)” below) in assay [3] is reported as “IgG cleavage (*) occurred; also recorded: somewhat reduced IgG cleaving activity”.

B2: rIgdE^H333A (protein)
chain: DENSHLQSPKNTNKIEVLNWEAFSKKLKDYSSDQRQFHVLKLGFENRLGTLSTREELEEFGKNNNFLVINGKVTQNIHDFPHILVMNKGDVIAHNEEDYHNQMRELRFSGNGDLHNSMEPKRIHALFKIELDSNKRQLLNAAGLGTAENSLKNINGMTIYSHGLTVDNKYYEDYSKYTHNSVKNINVTKERFIANDDLIHKLIESSEAMKQSSERDKVKAFVQYVANHTTYDWEAANKAVQNYADINYYLGSDLFAVTERQKAMCVGFSTTAARAFNMLGLPAYVVVGKNAEGVPAATARVYYDKKWHTIDGTGFITGNKHQRSAKYSEKHFSTIGEDSYDVVEAGQEPKAERNYMIIDSNYESWAMKQKTADLLLFNKEKSLVGLDYIAYVEPTYITENKKNHLLDIYKALKRKVEETKATDKDDKDDKQEGYDRVLQFVNSDIDKLSALSKITEEEFKALENSMDLARVFLGQMNAKAGKEFSEGETYQSYLKNRQKNNTNSDDDRNRNELQENQANSDEVSQNSKDASAPSVNSAQQSEELEGTPSTQETISAAPSQQTPAAPKALQAKTELEDKTETSSLGNTEMVSPSSETAQNTVDSKEESDAKLPYVEPSSKESSEAQVNTVSSPQVSSASPTSSETISTDTVTASQEKAESRVSAPQVISASQTSPETNSAEVVTTSQEVAKAPVSAPQVSSEIQTLSETAPTEVATEAPELSALESNPAPQTSLETTPTEEVTETPEPSVVESNSASPTSPETNSAEAVTTSQEMAEPSVSVPQVSSEIPTSSETAPAEVATEVSEESSSASQPSPETTPTETVTTSQEVAEAPVSAPQVSSEIPTSPETASTEVVVAKQEVADSPVSAPQVISEIPTSSETAPAEVATEVTEPSVVASSSASPTSPEANSTEVVVAKQEVADPLVSAPQTSSASLTLEVPKNEHLDEKADATTPNGVEANTHEAVSVPTSDIRVQDAGSDTVPQPYSLSATLFEEAISTVEPVGVATSSQERSAVAGKVKVPTSLERSNNSVEEEKVVDSNATIENREPEKKEILTSENVLNSLVTIWVALSTSFFMRYFSRGK
On to B2, for which, in assay [3], the “IgG cleavage (32 kDa band)” value is reported as “neither rIgdE^C302S nor rIgdE^H333A exhibited IgG cleaving activity”.

B3: rIgdE^C302S (protein)
chain: DENSHLQSPKNTNKIEVLNWEAFSKKLKDYSSDQRQFHVLKLGFENRLGTLSTREELEEFGKNNNFLVINGKVTQNIHDFPHILVMNKGDVIAHNEEDYHNQMRELRFSGNGDLHNSMEPKRIHALFKIELDSNKRQLLNAAGLGTAENSLKNINGMTIYSHGLTVDNKYYEDYSKYTHNSVKNINVTKERFIANDDLIHKLIESSEAMKQSSERDKVKAFVQYVANHTTYDWEAANKAVQNYADINYYLGSDLFAVTERQKAMSVGFSTTAARAFNMLGLPAYVVVGKNAEGVPHATARVYYDKKWHTIDGTGFITGNKHQRSAKYSEKHFSTIGEDSYDVVEAGQEPKAERNYMIIDSNYESWAMKQKTADLLLFNKEKSLVGLDYIAYVEPTYITENKKNHLLDIYKALKRKVEETKATDKDDKDDKQEGYDRVLQFVNSDIDKLSALSKITEEEFKALENSMDLARVFLGQMNAKAGKEFSEGETYQSYLKNRQKNNTNSDDDRNRNELQENQANSDEVSQNSKDASAPSVNSAQQSEELEGTPSTQETISAAPSQQTPAAPKALQAKTELEDKTETSSLGNTEMVSPSSETAQNTVDSKEESDAKLPYVEPSSKESSEAQVNTVSSPQVSSASPTSSETISTDTVTASQEKAESRVSAPQVISASQTSPETNSAEVVTTSQEVAKAPVSAPQVSSEIQTLSETAPTEVATEAPELSALESNPAPQTSLETTPTEEVTETPEPSVVESNSASPTSPETNSAEAVTTSQEMAEPSVSVPQVSSEIPTSSETAPAEVATEVSEESSSASQPSPETTPTETVTTSQEVAEAPVSAPQVSSEIPTSPETASTEVVVAKQEVADSPVSAPQVISEIPTSSETAPAEVATEVTEPSVVASSSASPTSPEANSTEVVVAKQEVADPLVSAPQTSSASLTLEVPKNEHLDEKADATTPNGVEANTHEAVSVPTSDIRVQDAGSDTVPQPYSLSATLFEEAISTVEPVGVATSSQERSAVAGKVKVPTSLERSNNSVEEEKVVDSNATIENREPEKKEILTSENVLNSLVTIWVALSTSFFMRYFSRGK
As to B3, in assay [3], the “IgG cleavage (32 kDa band)” value was “neither rIgdE^C302S nor rIgdE^H333A exhibited IgG cleaving activity”.
